In patent US6489469B1, “Method for storing or transporting erythritol solution” (Nikken Chemicals Co., Ltd., priority 1999, dated 2002):

What was measured:
[1] = tested on: Penicillium funiculosum IFO 6345; experiment: Viable Count of Penicillium funiculosum IFO 6345 in Erythritol Solution; type: cell-based
Method: Erythritol solutions of respective concentrations in the range of from 30 to 60% were prepared. To these were inoculated Staphylococcus aureus IFO 13276, Bacillus subtilis IFO 3134, and Escherichia coli IFO 3972 as bacteria, Candida albicans IFO 1549 and Saccharomyces cerevisiae ATCC 9763 as yeasts, Aspergillus niger IFO 6342, Aspergillus flavus IFO 6343, and Penicillium funiculosum IFO 6345 as fungi, respectively, in a population (concentration) of 10,000 cells/mL or more. After the inoculation, the solutions were stored at 30, 37, 45, 50, or 60° C., respectively, for 56 days and the number of viable cell was determined daily. The determination of the number of viable cell was performed by a method of coating 0.1 mL of appropriately diluted sample cultivation on an agar plate and cultivating and counting the number of viable cell (the number of colony) that grew after the cultivation.

[2] = tested on: Bacillus stearothermophilus IFO 12550; experiment: Viable Count of Bacillus stearothermophilus IFO 12550 in Erythritol Solution (heat resistant bacteria); type: cell-based; settings: 50° C.
Method: Erythritol solutions of respective concentrations in the range of from 30 to 70% were prepared. To these was inoculated Bacillus stearothermophilus IFO 12550 as a heat resistant bacterium in a population (concentration) of 10,000 cells/mL or more.
After the inoculation, the solutions were stored at 50, 60 or 75° C., respectively, for 56 days and the number of viable cell was determined daily. The determination of the number of viable cell was performed by in the same manner as in Example 1.

Compound: OC[C@@H](O)[C@@H](O)CO [Erythritol Solution, erythritol]
- The Number of Viable Cell ([1]; 37° C., 30% w/w, Day 0): ≥ 10000 cells/mL
- The Number of Viable Cell ([1]; 37° C., 30% w/w, Day 3): ≥ 10000 cells/mL
- The Number of Viable Cell ([1]; 37° C., 30% w/w, Day 7): ≥ 10000 cells/mL
- The Number of Viable Cell ([1]; 37° C., 30% w/w, Day 14): ≥ 10000 cells/mL
- The Number of Viable Cell ([1]; 37° C., 30% w/w, Day 28): ≥ 10000 cells/mL
- The Number of Viable Cell ([1]; 37° C., 30% w/w, Day 56): ≥ 10000 cells/mL
- The Number of Viable Cell ([1]; 37° C., 40% w/w, Day 0): ≥ 10000 cells/mL
- The Number of Viable Cell ([1]; 37° C., 40% w/w, Day 3): ≥ 10000 cells/mL
- The Number of Viable Cell ([1]; 37° C., 40% w/w, Day 7): ≥ 10000 cells/mL
- The Number of Viable Cell ([1]; 37° C., 40% w/w, Day 14): ≥ 10000 cells/mL
- The Number of Viable Cell ([1]; 37° C., 40% w/w, Day 28): ≥ 10000 cells/mL
- The Number of Viable Cell ([1]; 37° C., 40% w/w, Day 56): ≥ 10000 cells/mL
- The Number of Viable Cell ([1]; 45° C., 30% w/w, Day 0): ≥ 10000 cells/mL
- The Number of Viable Cell ([1]; 45° C., 30% w/w, Day 3): 370 cells/mL
- The Number of Viable Cell ([1]; 45° C., 30% w/w, Day 7): 0 cells/mL
- The Number of Viable Cell ([1]; 45° C., 30% w/w, Day 14): 0 cells/mL
- The Number of Viable Cell ([1]; 45° C., 30% w/w, Day 28): 0 cells/mL
- The Number of Viable Cell ([1]; 45° C., 30% w/w, Day 56): 0 cells/mL
- The Number of Viable Cell ([1]; 45° C., 40% w/w, Day 0): ≥ 10000 cells/mL
- The Number of Viable Cell ([1]; 45° C., 40% w/w, Day 3): 750 cells/mL
- The Number of Viable Cell ([1]; 45° C., 40% w/w, Day 7): 0 cells/mL
- The Number of Viable Cell ([1]; 45° C., 40% w/w, Day 14): 0 cells/mL
- The Number of Viable Cell ([1]; 45° C., 40% w/w, Day 28): 0 cells/mL
- The Number of Viable Cell ([1]; 45° C., 40% w/w, Day 56): 0 cells/mL
- The Number of Viable Cell ([1]; 45° C., 50% w/w, Day 0): ≥ 10000 cells/mL
- The Number of Viable Cell ([1]; 45° C., 50% w/w, Day 3): 1260 cells/mL
- The Number of Viable Cell ([1]; 45° C., 50% w/w, Day 7): 0 cells/mL
- The Number of Viable Cell ([1]; 45° C., 50% w/w, Day 14): 0 cells/mL
- The Number of Viable Cell ([1]; 45° C., 50% w/w, Day 28): 0 cells/mL
- The Number of Viable Cell ([1]; 45° C., 50% w/w, Day 56): 0 cells/mL
- The Number of Viable Cell ([1]; 50° C., 30% w/w, Day 0): ≥ 10000 cells/mL
- The Number of Viable Cell ([1]; 50° C., 30% w/w, Day 3): 0 cells/mL
- The Number of Viable Cell ([1]; 50° C., 30% w/w, Day 7): 0 cells/mL
- The Number of Viable Cell ([1]; 50° C., 30% w/w, Day 14): 0 cells/mL
- The Number of Viable Cell ([1]; 50° C., 30% w/w, Day 28): 0 cells/mL
- The Number of Viable Cell ([1]; 50° C., 30% w/w, Day 56): 0 cells/mL
- The Number of Viable Cell ([1]; 50° C., 40% w/w, Day 0): ≥ 10000 cells/mL
- The Number of Viable Cell ([1]; 50° C., 40% w/w, Day 3): 0 cells/mL
- The Number of Viable Cell ([1]; 50° C., 40% w/w, Day 7): 0 cells/mL
- The Number of Viable Cell ([1]; 50° C., 40% w/w, Day 14): 0 cells/mL
- The Number of Viable Cell ([1]; 50° C., 40% w/w, Day 28): 0 cells/mL
- The Number of Viable Cell ([1]; 50° C., 40% w/w, Day 56): 0 cells/mL
- The Number of Viable Cell ([1]; 50° C., 50% w/w, Day 0): ≥ 10000 cells/mL
- The Number of Viable Cell ([1]; 50° C., 50% w/w, Day 3): 0 cells/mL
- The Number of Viable Cell ([1]; 50° C., 50% w/w, Day 7): 0 cells/mL
- The Number of Viable Cell ([1]; 50° C., 50% w/w, Day 14): 0 cells/mL
- The Number of Viable Cell ([1]; 50° C., 50% w/w, Day 28): 0 cells/mL
- The Number of Viable Cell ([1]; 50° C., 50% w/w, Day 56): 0 cells/mL
- growth of the microbes ([1]; temperature of 50° C. or more): prevented from growing
- time after which microbes died ([1]; temperature of 50° C. or more): 3 days
- The Number of Viable Cell ([2]; 30% w/w, Day 0): 10000 or more cells/mL
- The Number of Viable Cell ([2]; 30% w/w, Day 3): 70 cells/mL
- The Number of Viable Cell ([2]; 30% w/w, Day 7): 60 cells/mL
- The Number of Viable Cell ([2]; 30% w/w, Day 14): 40 cells/mL
- The Number of Viable Cell ([2]; 30% w/w, Day 28): 60 cells/mL
- The Number of Viable Cell ([2]; 30% w/w, Day 56): 50 cells/mL
- The Number of Viable Cell ([2]; 40% w/w, Day 0): 10000 or more cells/mL
- The Number of Viable Cell ([2]; 40% w/w, Day 3): 40 cells/mL
- The Number of Viable Cell ([2]; 40% w/w, Day 7): 50 cells/mL
- The Number of Viable Cell ([2]; 40% w/w, Day 14): 50 cells/mL
- The Number of Viable Cell ([2]; 40% w/w, Day 28): 50 cells/mL
- The Number of Viable Cell ([2]; 40% w/w, Day 56): 60 cells/mL
